Laboratory results from PMC7594083, “Preclinical Evaluation of the GRPR-Targeting Antagonist RM26 Conjugated to the Albumin-Binding Domain for GRPR-Targeting Therapy of Cancer” (Pharmaceutics, 2020).
Like-named read-outs stand apart in the source and are kept apart here.

Columns and labels:
[1] = Circular dichroism, secondary structure/helicity; assay type: physicochemical
Procedure: The secondary structures of ABD035, DOTA-ABD-Cl and DOTA-ABD-RM26 were determined by circular dichroism spectroscopy (Chirascan, Applied Photophysics, Leatherhead, UK). All CD spectra were obtained at 20 °C using a protein concentration of 0.2 mg/mL in 20 mM potassium phosphate buffer with 100 mM KCl pH 7.4. To estimate the percentage of helicity in each construct, the measured ellipticity (θobs) was first converted to the mean residue ellipticity (MRE) using the following formula MRE = θobs/10 × l × C × n, where l is the pathlength in cm, C is the peptide concentration in the molar, and n is the number of residues in each construct. From the mean residue ellipticity at 222 nm, MRE222, the fraction helix, FH, was calculated using the following formula, FH = (MRE222 − [θ]C)/([θ]H − [θ]C). [θ]H and [θ]C are given by [θ]H = 40,000 × (1 − (2.5/n) + 100 × T, and [θ]C = 640 − 45 × T. T is given in °C, here 20, and n is the number of residues in each construct (Scholtz 1991).

[2] = Thermal melting by circular dichroism; assay type: physicochemical; conditions: pH 7.4
PC-3 xenografts = test: Biodistribution in mice bearing PC-3 xenografts; assay type: in vivo, mice (BALB/c nu/nu female)
Procedure: (§1) Instant thin-layer chromatography (ITLC) results were analyzed using Cyclone® Plus (PerkinElmer). […] BALB/c nu/nu female mice were implanted subcutaneously with PC-3 cells in PBS (6.5 × 10^6 cells/mouse) on the hind leg. […] A group of four mice was used per data point. […] After euthanization, the organs of interest were collected and weighed, and the radioactivity content was measured on a gamma counter.

[3] = Biodistribution in mice bearing PC-3 xenografts; assay type: in vivo, mice (BALB/c nu/nu female); conditions: mouse, in vivo, iv, 40 pmol, 40 pmol i.v., 1 h pi, 4 mice, SD; read-out: activity concentration in blood 1 h pi
Procedure: as §1

GRPR = GRPR (Homo sapiens, UniProt P30550); test: Competitive binding (IC50) assay on PC-3 cells; design: host or cells: PC-3 prostate carcinoma cells; conditions: vs 1 nM [^111In]In-NOTA-PEG4-RM26, PC-3 cells, 0-10 µM, 4 °C, 5 h, n = 3, SD
Procedure: Prostate carcinoma cell line PC-3 (GRPR positive) was purchased from ATCC, Manassas, VA, USA. […] PC-3 cells (5 × 10^5 cells/well) were plated on 12-well plates one day before the competitive binding assays. […] On the day of the experiment, the cells were washed, and 1 nM of [^111In]In-NOTA-PEG4-RM26 was added to each well along with a series of concentrations ranging between 0-10 μM of the competing conjugate. The dishes were incubated at 4 °C for 5 h. The cells were then washed and treated with trypsin-EDTA until cell detachment. The cells were collected, and the radioactivity content was measured using a gamma counter.

[4] = biological target: gastrin-releasing peptide receptor (human (endogenous in PC-3)) (UniProt P30550); test: radioligand binding
Sequence of gastrin-releasing peptide receptor (human (endogenous in PC-3)) (P30550 whole entry): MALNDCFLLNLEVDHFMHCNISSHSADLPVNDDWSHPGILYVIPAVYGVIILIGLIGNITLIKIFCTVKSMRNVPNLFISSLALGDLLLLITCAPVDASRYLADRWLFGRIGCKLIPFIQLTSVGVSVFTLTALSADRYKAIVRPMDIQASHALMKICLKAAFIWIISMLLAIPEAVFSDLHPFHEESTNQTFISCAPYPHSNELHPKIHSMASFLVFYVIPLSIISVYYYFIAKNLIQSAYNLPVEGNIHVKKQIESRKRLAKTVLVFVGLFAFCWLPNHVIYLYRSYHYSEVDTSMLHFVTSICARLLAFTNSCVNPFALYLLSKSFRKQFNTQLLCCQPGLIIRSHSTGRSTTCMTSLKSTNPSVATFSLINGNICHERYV

Sequence of GRPR (P30550 whole entry): as above

CC[C@H](C)[C@H](NC(=O)[C@H](Cc1c[nH]cn1)NC(=O)[C@H](CC(C)C)NC(=O)[C@H](CCCCN)NC(=O)[C@H](CC(C)C)NC(=O)[C@H](C)NC(=O)[C@H](CCC(=O)O)NC(=O)[C@@H](NC(=O)CNC(=O)[C@H](CCC(=O)O)NC(=O)[C@@H](NC(=O)[C@@H](NC(=O)[C@H](CCCCN)NC(=O)[C@H](C)NC(=O)[C@H](CCCCN)NC(=O)[C@H](CC(N)=O)NC(=O)[C@@H](NC(=O)[C@H](CC(C)C)NC(=O)[C@H](CCCNC(=N)N)NC(=O)[C@H](CCCCN)NC(=O)[C@H](Cc1ccc(O)cc1)NC(=O)[C@H](Cc1ccccc1)NC(=O)[C@H](CC(=O)O)NC(=O)[C@H](CO)NC(=O)[C@@H](NC(=O)CNC(=O)[C@H](Cc1ccc(O)cc1)NC(=O)[C@H](CCCCNC(=O)CCl)NC(=O)[C@H](CC(=O)O)NC(=O)[C@H](CC(C)C)NC(=O)[C@H](CCC(=O)O)NC(=O)[C@H](CCCNC(=N)N)NC(=O)[C@H](CC(N)=O)NC(=O)[C@H](C)NC(=O)[C@H](CC(C)C)NC(=O)[C@@H](NC(=O)[C@H](CCCCN)NC(=O)[C@H](C)NC(=O)[C@H](CCC(=O)O)NC(=O)[C@H](C)NC(=O)[C@H](CC(C)C)NC(=O)CN1CCN(CC(=O)O)CCN(CC(=O)O)CCN(CC(=O)O)CC1)C(C)C)C(C)C)[C@@H](C)CC)[C@@H](C)O)C(C)C)C(C)C)C(=O)N[C@@H](CC(C)C)C(=O)N[C@@H](C)C(=O)N[C@@H](C)C(=O)N[C@@H](CC(C)C)C(=O)N1CCC[C@H]1C(N)=O [DOTA-ABD-Cl]
CD spectrum pattern ([1]; 20 °C, 0.2 mg/mL, 20 mM potassium phosphate with 100 mM KCl pH 7.4): characteristic alpha-helical pattern
helicity ([1]; from MRE222, 20 °C, 0.2 mg/mL, 20 mM potassium phosphate with 100 mM KCl pH 7.4, helix-coil theory): approximately 60%
residues in helical conformation ([1]; from MRE222, 20 °C, pH 7.4, out of 49 (ABD035), 46 (DOTA-ABD-Cl), 56 (ABD-RM26) residues): 27 residues
melting temperature (Tm) ([2]; CD, 0.2 mg/mL in 20 mM potassium phosphate, 100 mM KCl, estimated (only roughly for DOTA-ABD-RM26)): 50 °C

CC[C@H](C)[C@H](NC(=O)[C@H](Cc1c[nH]cn1)NC(=O)[C@H](CC(C)C)NC(=O)[C@H](CCCCN)NC(=O)[C@H](CC(C)C)NC(=O)[C@H](C)NC(=O)[C@H](CCC(=O)O)NC(=O)[C@@H](NC(=O)CNC(=O)[C@H](CCC(=O)O)NC(=O)[C@@H](NC(=O)[C@@H](NC(=O)[C@H](CCCCN)NC(=O)[C@H](C)NC(=O)[C@H](CCCCN)NC(=O)[C@H](CC(N)=O)NC(=O)[C@@H](NC(=O)[C@H](CC(C)C)NC(=O)[C@H](CCCNC(=N)N)NC(=O)[C@H](CCCCN)NC(=O)[C@H](Cc1ccc(O)cc1)NC(=O)[C@H](Cc1ccccc1)NC(=O)[C@H](CC(=O)O)NC(=O)[C@H](CO)NC(=O)[C@@H](NC(=O)CNC(=O)[C@H](Cc1ccc(O)cc1)NC(=O)[C@H](CCCCNC(=O)CSCCC(=O)NCCOCCOCCOCCOCCC(=O)N[C@H](Cc1ccccc1)C(=O)N[C@@H](CCC(N)=O)C(=O)N[C@@H](Cc1c[nH]c2ccccc12)C(=O)N[C@@H](C)C(=O)N[C@H](C(=O)NCC(=O)N[C@@H](Cc1c[nH]cn1)C(=O)N[C@@H](CC(C)C)[C@@H](O)CC(=O)N[C@@H](CC(C)C)C(N)=O)C(C)C)NC(=O)[C@H](CC(=O)O)NC(=O)[C@H](CC(C)C)NC(=O)[C@H](CCC(=O)O)NC(=O)[C@H](CCCNC(=N)N)NC(=O)[C@H](CC(N)=O)NC(=O)[C@H](C)NC(=O)[C@H](CC(C)C)NC(=O)[C@@H](NC(=O)[C@H](CCCCN)NC(=O)[C@H](C)NC(=O)[C@H](CCC(=O)O)NC(=O)[C@H](C)NC(=O)[C@H](CC(C)C)NC(=O)CN1CCN(CC(=O)O)CCN(CC(=O)O)CCN(CC(=O)O)CC1)C(C)C)C(C)C)[C@@H](C)CC)[C@@H](C)O)C(C)C)C(C)C)C(=O)N[C@@H](CC(C)C)C(=O)N[C@@H](C)C(=O)N[C@@H](C)C(=O)N[C@@H](CC(C)C)C(=O)N1CCC[C@H]1C(N)=O [DOTA-ABD-RM26]
uptake in pancreas, intestines and xenografts, ABD-coupled vs parental RM26 (PC-3 xenografts; 1 h pi, discussion): activity uptake was equal both for ABD-coupled and parental RM26
kidney uptake vs tumor uptake (PC-3 xenografts; all studied time points, 1-144 h pi): higher than that in tumors at all studied time points
uptake in liver and bone (PC-3 xenografts; up to 144 h pi): elevated up to 144 h pi

CC(C)C[C@H](NC(=O)C[C@H](O)[C@H](CC(C)C)NC(=O)[C@H](Cc1c[nH]cn1)NC(=O)CNC(=O)[C@@H](NC(=O)[C@H](C)NC(=O)[C@H](Cc1c[nH]c2ccccc12)NC(=O)[C@H](CCC(N)=O)NC(=O)[C@@H](Cc1ccccc1)NC(=O)COCCOCCNC(=O)CN1CCN(CC(=O)O)CCN(CC(=O)O)CCN(CC(=O)O)CC1)C(C)C)C(N)=O [[^111In]In-DOTA-RM26, metal not drawn, reference compound]
tissue uptake at 1 h [3]: 0.27 ± 0.04 %ID/g
pancreas and tumor uptake, [^111In]In-DOTA-ABD-RM26 vs [^111In]In-DOTA-RM26 (PC-3 xenografts; 1 h pi): on the same level for both radiolabelled conjugates

CC[C@H](C)[C@H](NC(=O)[C@H](Cc1c[nH]cn1)NC(=O)[C@H](CC(C)C)NC(=O)[C@H](CCCCN)NC(=O)[C@H](CC(C)C)NC(=O)[C@H](C)NC(=O)[C@H](CCC(=O)O)NC(=O)[C@@H](NC(=O)CNC(=O)[C@H](CCC(=O)O)NC(=O)[C@@H](NC(=O)[C@@H](NC(=O)[C@H](CCCCN)NC(=O)[C@H](C)NC(=O)[C@H](CCCCN)NC(=O)[C@H](CC(N)=O)NC(=O)[C@@H](NC(=O)[C@H](CC(C)C)NC(=O)[C@H](CCCNC(=N)N)NC(=O)[C@H](CCCCN)NC(=O)[C@H](Cc1ccc(O)cc1)NC(=O)[C@H](Cc1ccccc1)NC(=O)[C@H](CC(=O)O)NC(=O)[C@H](CO)NC(=O)[C@@H](NC(=O)CNC(=O)[C@H](Cc1ccc(O)cc1)NC(=O)[C@H](CCCCNC(=O)CSCCC(=O)NCCOCCOCCOCCOCCC(=O)N[C@H](Cc1ccccc1)C(=O)N[C@@H](CCC(N)=O)C(=O)N[C@@H](Cc1c[nH]c2ccccc12)C(=O)N[C@@H](C)C(=O)N[C@H](C(=O)NCC(=O)N[C@@H](Cc1c[nH]cn1)C(=O)N[C@@H](CC(C)C)[C@@H](O)CC(=O)N[C@@H](CC(C)C)C(N)=O)C(C)C)NC(=O)[C@H](CC(=O)O)NC(=O)[C@H](CC(C)C)NC(=O)[C@H](CCC(=O)O)NC(=O)[C@H](CCCNC(=N)N)NC(=O)[C@H](CC(N)=O)NC(=O)[C@H](C)NC(=O)[C@H](CC(C)C)NC(=O)[C@@H](NC(=O)[C@H](CCCCN)NC(=O)[C@H](C)NC(=O)[C@H](CCC(=O)O)NC(=O)[C@H](C)NC(=O)[C@H](CC(C)C)NC(=O)CN1CCN(CC(=O)O)CCN(CC(=O)O)CCN(CC(=O)O)CC1)C(C)C)C(C)C)[C@@H](C)CC)[C@@H](C)O)C(C)C)C(C)C)C(=O)N[C@@H](CC(C)C)C(=O)N[C@@H](C)C(=O)N[C@@H](C)C(=O)N[C@@H](CC(C)C)C(=O)N1CCC[C@H]1C(N)=O [^natIn-DOTA-ABD-RM26, metal not drawn]
IC50 (GRPR; 10-fold molar excess of HSA, read-out: half-maximal inhibitory concentration (IC50) in the presence of HSA): 49 ± 5 nM
IC50 (GRPR; without HSA, read-out: half-maximal inhibitory concentration (IC50)): 30 ± 3 nM

AMALAEAKVLANRELDKYGVSDFYKRLINKAKTVEGVEALKLHILAALP [ABD035, recombinant control protein, reference compound]
melting temperature (Tm) [2]: 54 °C

DOTA-ABD-RM26 (designed binder)
IC50 [4]: 30 nM

DOTA-ABD-RM26 bound to human serum albumin (from UniProt P02768 25-609) (complex)
IC50 [4]: 49 nM
